According to patent US20230348376A1 (TEIJIN PHARMA LIMITED, priority 2020, published 2023):
Each block holds one molecule with its values, some of them ahead of it.

Legend:
[1] = test system: rat oligodendrocyte progenitor cells; assay: Promotive activity of rat oligodendrocyte progenitor cell differentiation-2 (immunostaining of MBP); format: cell-based; conditions: vitamin D derivative 2 μM, T3 30 nM, 4 days
Summary of the method: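 Vitamin D derivatives scored as symbols for promoting differentiation, read out by MBP immunostaining. OPCs taken from supernatant after about 22 h shaking (37 °C, 200 rpm) in separation medium.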

[2] = Evaluation of calcium increasing action in normal mice (serum calcium); format: in vivo, mouse; conditions: for Serum calcium concentration: repeated oral once a day, 2 weeks, C57BL/6J mice; for Calcium concentration Fluctuation range: vs vehicle 8.9 mg/dL
Method: After acclimatizing C57BL/6J mice (7 weeks old, male) for 1 week, the mice were divided into groups of 5 mice based on the body weight, and administration of the compound or vehicle was started. The administration solution used was a compound (in ethanol) or ethanol diluted 100-fold with 0.1% Trion X-100 (SIGMA #X100-100ML)/saline, and the repeated oral administration at once a day was performed. After administration of 2 weeks, euthanasia was performed by collecting all blood under general anesthesia.

[3] = Evaluation of brain penetration in mice (blood and brain concentration at brain Cmax); format: in vivo, mouse; conditions: 0.2 mg/kg single oral dose, C57BL/6J mice; for Concentration in blood at brain Cmax / Concentration in brain at brain Cmax: n=3; for Kp: male, C57BL/6J, mouse, brain/plasma, po, 0.2 mg/kg, read-out: Concentration ratio in brain/in blood at brain Cmax
Summary of the method: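 Male C57BL/6J mice (8 weeks, n=3) dosed orally once at 1 […] mg/kg; plasma and brain collected at 0.25, 0.5, 1, 2, 4 and 8 h. Compound extracted with acetonitrile from brain homogenate and plasma, quantified by LC/MS/MS.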

[4] = test system: rat oligodendrocyte progenitor cells; assay: Promotive activity of rat oligodendrocyte progenitor cell differentiation-1 (MBP gene expression, mRNA); format: cell-based; conditions: 4 days, MBP/β actin mRNA; for activation at 1 µM: Rattus norvegicus, Oligodendrocyte progenitor cell, 96 h, read-out: promotive activity at T3 base (MBP gene expression; DMSO 0%, T3 100%)
Summary of the method: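 Primary OPCs from 1-day-old SD rat forebrain, isolated by shaking off mixed glial cultures and seeded at 2×10^3 cells/well in B27/CNTF (10 ng/mL) differentiation medium with compound. MBP mRNA measured by one-step TaqMan real-time PCR and expressed as MBP/β-actin ratio.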

[5] = test system: mouse neural stem cells (NSCs); assay: Promoting activity in oligodendrocyte differentiation of mouse neural stem cell (GalC immunostaining); format: cell-based; conditions: for Gal/C positive ratio Average value: day 10, N=5
Method: To NSC basal medium (100 mL) included in this product, B27 (1 mL), Penicillin-Streptomycin (1 mL), Glutamine (1 mL), bFGF (20 μL), EGF (10 μL), and Heparin (100 μL) were added to prepare the growth medium. Mouse neural stem cells were reconstituted in a T-25 flask using the growth medium and proliferated as a neurosphere by suspension culture. The cells were expanded by passaging at a split ratio=1:2 in a CO2 incubator (5% CO2, 37° C., wet) to obtain the required number of cells. ACCUTASE (Innovative Cell Technologies, Cat. No. AT104) was used as the passage reagent.
The differentiation medium containing test substance was prepared to a target final concentration by diluting a solution of 20 mM compound in DMSO to 10-fold with DMSO and then to 2×10^5-fold with the differentiation medium. Additive-free differentiation medium for control was prepared by diluting DMSO to 2×10^5-fold with the differentiation medium to be a final concentration of 5×10^−5%.
The mouse neural stem cells were seeded on a poly-L-Lysine/Laminin-coated 96-well plate at a cell density of 2.0×10^4 cells/100 μL/well using the differentiation medium and the culture was started in a CO2 incubator (5% CO2, 37° C., wet). The next day, the medium was replaced with the differentiation medium containing a test substance or an additive-free differentiation medium for control, and evaluation of the test substance (N=5) was started (day 0). The medium was replaced every other day by 60% of the medium in the wells. On day 10, cells were fixed and immunostained.
After the medium was removed, the cells were fixed by adding 100 μL of 4% paraformaldehyde-PBS and being incubated at room temperature for 30 minutes. Next, the cells were washed 3 times with PBS, 100 μL of 5% Goat Serum/PBS was added thereto, and the mixture was incubated at room temperature for 30 minutes to perform blocking and membrane permeation treatment. […] After the cells were washed 3 times with PBS, 100 μL of PBS was added to the wells, and the wells were photographed with fluorescence microscopy. Images were taken under the same condition in all wells, and blue fluorescence and green fluorescence were simultaneously photographed.
Using the hybrid cell counting software provided in the fluorescence microscope (Keyence, BZ-X700), co-localized spots of green fluorescence and blue fluorescence were extracted, and the number of these spots was defined as the total number of GalC-positive cells, and the oligodendrocyte differentiation ratio was calculated by the following calculation:the total number of GalC-positive cells/the number of nuclei (number of blue fluorescence spots). A significant difference test was performed by t-test between the additive-free group and the sample-added group.

human VDR = biological target: T1, human VDR (Homo sapiens, UniProt P11473); assay: Evaluation of VDR transcription activity in human osteoblasts (HOS cells), luciferase reporter; conditions: Activity (EC50, VDR transcription activity), HOS cells transfected with human VDR, human RXRα and DR3 luciferase reporter; 21 hours
T1 sequence (P11473 1-427): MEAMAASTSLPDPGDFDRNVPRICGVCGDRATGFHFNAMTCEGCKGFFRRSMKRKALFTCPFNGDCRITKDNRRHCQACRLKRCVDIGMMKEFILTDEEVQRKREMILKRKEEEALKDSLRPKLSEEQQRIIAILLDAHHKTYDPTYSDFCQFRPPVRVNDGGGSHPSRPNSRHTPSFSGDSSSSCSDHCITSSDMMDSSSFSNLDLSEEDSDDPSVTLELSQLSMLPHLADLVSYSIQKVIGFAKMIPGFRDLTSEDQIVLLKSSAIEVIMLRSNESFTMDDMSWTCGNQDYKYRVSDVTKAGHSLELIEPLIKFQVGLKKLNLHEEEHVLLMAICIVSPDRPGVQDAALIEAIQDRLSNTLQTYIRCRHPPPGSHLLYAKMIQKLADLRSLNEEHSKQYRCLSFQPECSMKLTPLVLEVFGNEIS
T1 sequence (P19793 1-462 partner): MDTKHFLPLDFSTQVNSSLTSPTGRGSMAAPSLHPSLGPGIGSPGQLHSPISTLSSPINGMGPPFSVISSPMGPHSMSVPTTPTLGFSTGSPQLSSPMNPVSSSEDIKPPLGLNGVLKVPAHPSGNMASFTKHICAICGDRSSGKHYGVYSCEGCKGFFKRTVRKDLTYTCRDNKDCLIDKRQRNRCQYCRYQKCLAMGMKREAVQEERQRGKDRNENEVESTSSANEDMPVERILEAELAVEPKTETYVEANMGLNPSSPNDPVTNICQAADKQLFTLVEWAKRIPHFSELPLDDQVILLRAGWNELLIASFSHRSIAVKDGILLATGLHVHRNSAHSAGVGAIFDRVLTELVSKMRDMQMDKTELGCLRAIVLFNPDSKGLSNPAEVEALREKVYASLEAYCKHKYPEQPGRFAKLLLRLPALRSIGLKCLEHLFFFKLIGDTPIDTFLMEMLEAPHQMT

- Serum calcium concentration ([2]; 20 μg/kg): 8.9 mg/dL
- Calcium concentration Fluctuation range ([2]; 20 μg/kg): 0 mg/dL
- Serum calcium concentration ([2]; 60 μg/kg): 8.8 mg/dL
- Calcium concentration Fluctuation range ([2]; 60 μg/kg): -0.1 mg/dL
- Serum calcium concentration ([2]; 200 μg/kg): 9.0 mg/dL
- Calcium concentration Fluctuation range ([2]; 200 μg/kg): 0.1 mg/dL
- Concentration in blood at brain Cmax [3]: 72.2 ± 10.4 nM
- Concentration in brain at brain Cmax [3]: 171.2 ± 37.4 pmol/g
- Kp [3]: 2.35
SMILES: C[C@H](CN1CCOC[C@@H]1C)[C@H]1CC[C@H]2/C(=C/C=C3C[C@@H](O)C[C@H](O)C3)CCC[C@]12C [Compound G004, (1R,3R)-5-(2-((1R,3aS,7aR,E)-7a-methyl-1-((S)-1-((S)-3-methylmorpholino)propan-2-yl)octahydro-4H-inden-4-ylidene)ethylidene)cyclohexane-1,3-diol]
- Mean (number of MBP-positive cells/number of Hoechst33342-positive cells) ([1]; Test 3): 0.27

SMILES: C[C@H](CCN1CCOC[C@@H]1C)[C@H]1CC[C@H]2/C(=C/C=C3C[C@@H](O)C[C@H](O)C3)CCC[C@]12C [Compound D043, (1R,3R)-5-(2-((1R,3aS,7aR,E)-7a-methyl-1-((R)-4-((S)-3-methylmorpholino)butan-2-yl)octahydro-4H-inden-4-ylidene)ethylidene)cyclohexane-1,3-diol]
- activation at 1 µM [4]: ≥ 20%
- Gal/C positive ratio Average value ([5]; 10 nM): 12.81
- Gal/C positive ratio Average value ([5]; 100 nM): 12.27
- Gal/C positive ratio Average value ([5]; 1000 nM): 16.09

- EC50 (human VDR): 1 to 10 nM
SMILES: C[C@H](CCCN1CCOCC1)[C@H]1CC[C@H]2/C(=C/C=C3C[C@@H](O)C[C@H](O)C3)CCC[C@]12C [Compound D044, (1R,3R)-5-(2-((1R,3aS,7aR,E)-7a-methyl-1-((R)-5-morpholinopentan-2-yl)octahydro-4H-inden-4-ylidene)ethylidene)cyclohexane-1,3-diol]
- activation at 1 µM [4]: ≥ 20%
- Gal/C positive ratio Average value ([5]; 10 nM): 9.10
- Gal/C positive ratio Average value ([5]; 100 nM): 8.22
- Gal/C positive ratio Average value ([5]; 1000 nM): 12.37

- EC50 (human VDR): 10 to 100 nM
SMILES: C[C@H](CCN1CCOC[C@H]1C)[C@H]1CC[C@H]2/C(=C/C=C3C[C@@H](O)C[C@H](O)C3)CCC[C@]12C [Compound D042, (1R,3R)-5-(2-((1R,3aS,7aR,E)-7a-methyl-1-((R)-4-((R)-3-methylmorpholino)butan-2-yl)octahydro-4H-inden-4-ylidene)ethylidene)cyclohexane-1,3-diol]
- Gal/C positive ratio Average value ([5]; 10 nM): 12.25
- Gal/C positive ratio Average value ([5]; 100 nM): 14.27
- Gal/C positive ratio Average value ([5]; 1000 nM): 15.80

SMILES: C=C1/C(=C\C=C2/CCC[C@]3(C)[C@@H]([C@H](C)CCCC(C)(C)O)CC[C@@H]23)C[C@@H](O)C[C@@H]1O [1α,25-dihydroxyvitamin D3, reference compound]
- promotive activity at T3 base (MBP gene expression; DMSO 0%, T3 100%) ([4]; 1 μM): 0%
- promoting activity in a Gal/C-positive oligodendrocyte differentiation ([5]; 1000 nM): 1.5 times

SMILES: C[C@H](CN1CCOCC1)[C@H]1CC[C@H]2/C(=C/C=C3C[C@@H](O)C[C@H](O)C3)CCC[C@]12C [Compound D004, (1R,3R)-5-(2-((1R,3aS,7aR,E)-7a-methyl-1-((S)-1-morpholinopropan-2-yl)-octahydro-4H-inden-4-ylidene)ethylidene)cyclohexane-1,3-diol]
- Gal/C positive ratio Average value ([5]; 10 nM): 12.61
- Gal/C positive ratio Average value ([5]; 100 nM): 15.55
- Gal/C positive ratio Average value ([5]; 1000 nM): 16.76

- EC50 (human VDR): 10 to 100 nM
SMILES: C=C1/C(=C\C=C2/CCC[C@]3(C)[C@@H]([C@H](C)CCN4CCOC[C@@H]4C)CC[C@@H]23)C[C@@H](O)CC1O (stereo in doubt) [Compound D045, (1R,3R,Z)-5-(2-((1R,3aS,7aR,E)-7a-methyl-1-((R)-4-((S)-3-methylmorpholino)butan-2-yl)octahydro-4H-inden-4-ylidene)ethylidene)-4-methylenecyclohexane-1,3-diol]
- Gal/C positive ratio Average value ([5]; 10 nM): 11.46
- Gal/C positive ratio Average value ([5]; 100 nM): 12.01
- Gal/C positive ratio Average value ([5]; 1000 nM): 14.93

- Serum calcium concentration ([2]; 20 μg/kg): 8.9 mg/dL
- Calcium concentration Fluctuation range ([2]; 20 μg/kg): 0 mg/dL
- Serum calcium concentration ([2]; 60 μg/kg): 8.9 mg/dL
- Calcium concentration Fluctuation range ([2]; 60 μg/kg): 0 mg/dL
- Serum calcium concentration ([2]; 200 μg/kg): 8.6 mg/dL
- Calcium concentration Fluctuation range ([2]; 200 μg/kg): -0.3 mg/dL
- Concentration in blood at brain Cmax [3]: 58.9 ± 0.5 nM
- Concentration in brain at brain Cmax [3]: 137.8 ± 11.5 pmol/g
- Kp [3]: 2.38
SMILES: C[C@H](CN1CCOCC1(C)C)[C@H]1CC[C@H]2/C(=C/C=C3C[C@@H](O)C[C@H](O)C3)CCC[C@]12C [Compound G006, (1R,3R)-5-(2-((1R,3aS,7aR,E)-1-((S)-1-(3,3-dimethylmorpholino)propan-2-yl)-7a-methyloctahydro-4H-inden-4-ylidene)ethylidene)cyclohexane-1,3-diol]
- Mean (number of MBP-positive cells/number of Hoechst33342-positive cells) ([1]; Test 4): 0.50
